ChEMBL document CHEMBL1201862, “PubChem BioAssay data set” (2004)
The source made the active and inactive calls.

Tests used:
[1] = inhibitors of PGC1a acetylation in cells, dose response, cell-based, cherry-picked samples (AID 720514); format: functional;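 also: potency may reflect raised or lowered acetylation signal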
[2] = cytotoxicity toward NIH3T3 fibroblasts, dose response, counter-screen, cell-based, ATP luminescence, mouse fibroblasts (AID 2010); format: functional;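 also: cells exposed to compound for about 90 hours before reading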
[3] = A Cell Based Secondary Assay To Explore Cytotoxicity of Compounds that Sensitize Mycobacterium Tuberculosis to Beta-Lactam Antibiotics.; format: functional
[4] = inhibitors of intracellular T. cruzi replication, confirmation, NIH3T3 host cells, beta-gal luminescence (AID 2044); format: functional, cell-based;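 also: intracellular parasites grown in NIH/3T3 mouse fibroblasts as host cells; luminescent beta-galactosidase reporter signal from transgenic T. cruzi replicating inside host cells; inhibitors lower the luminescence signal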
[5] = tested on: HEK293; experiment: cells; conditions: Homo sapiens
[6] = tested on: HEK293; experiment: cells; conditions: Homo sapiens; remark: listed apart in the source
[7] = target: T1, Heat shock factor protein 1 (Mus musculus, UniProt P38532); experiment: HSF1 potentiators in luciferase reporter cells, confirmation, cell-based, NIH3T3, luminescence, dose retest (AID 435004); format: functional;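 also: stress induced by proteasome inhibitor MG132 added 30 min after compound; luciferase reporter driven by HSF1 response element in NIH3T3 cells; actives raise luminescence as potentiators of the MG132 stress response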
T1 sequence (P38532 whole entry): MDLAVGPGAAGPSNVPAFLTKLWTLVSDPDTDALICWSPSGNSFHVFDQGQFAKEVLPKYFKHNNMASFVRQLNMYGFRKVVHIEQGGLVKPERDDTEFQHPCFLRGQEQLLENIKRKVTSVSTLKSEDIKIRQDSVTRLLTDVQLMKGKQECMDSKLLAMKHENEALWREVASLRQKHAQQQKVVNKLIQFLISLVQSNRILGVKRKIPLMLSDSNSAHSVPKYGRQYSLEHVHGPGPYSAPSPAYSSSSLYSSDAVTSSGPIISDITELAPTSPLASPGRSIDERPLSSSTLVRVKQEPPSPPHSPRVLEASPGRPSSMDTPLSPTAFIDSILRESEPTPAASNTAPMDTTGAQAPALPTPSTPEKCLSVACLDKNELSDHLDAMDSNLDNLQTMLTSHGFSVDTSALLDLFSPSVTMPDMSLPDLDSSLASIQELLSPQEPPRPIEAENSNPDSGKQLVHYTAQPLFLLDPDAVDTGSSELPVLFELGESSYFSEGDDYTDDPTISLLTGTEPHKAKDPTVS

[8] = tested on: HeLa; experiment: HeLa cell cytotoxicity, dose response, cytotoxicity control for MITF activator project, CellTiter-Glo luminescence, cherry-pick samples (AID 540259); format: functional, cell-based; conditions: Homo sapiens
[9] = target: Cytochrome P450 2D6 (Homo sapiens, UniProt P10635);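 also: CYP2D6 member of a cytochrome P450 panel assay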
[10] = target: Lysine-specific demethylase 4A (Homo sapiens, UniProt O75164); experiment: JMJD2A histone demethylase inhibitors, dose response, selectivity assay for GASC-1 inhibitor project, biochemical, DELFIA europium, cherry-picked samples (AID 488840)
[11] = target: T2, Lysine-specific demethylase 4C (Homo sapiens, UniProt Q9H3R0); experiment: GASC-1 (JMJD2C) histone demethylase inhibitors, dose response, biochemical, DELFIA europium, cherry-picked samples (AID 488835); format: functional
T2 sequence (Q9H3R0 whole entry): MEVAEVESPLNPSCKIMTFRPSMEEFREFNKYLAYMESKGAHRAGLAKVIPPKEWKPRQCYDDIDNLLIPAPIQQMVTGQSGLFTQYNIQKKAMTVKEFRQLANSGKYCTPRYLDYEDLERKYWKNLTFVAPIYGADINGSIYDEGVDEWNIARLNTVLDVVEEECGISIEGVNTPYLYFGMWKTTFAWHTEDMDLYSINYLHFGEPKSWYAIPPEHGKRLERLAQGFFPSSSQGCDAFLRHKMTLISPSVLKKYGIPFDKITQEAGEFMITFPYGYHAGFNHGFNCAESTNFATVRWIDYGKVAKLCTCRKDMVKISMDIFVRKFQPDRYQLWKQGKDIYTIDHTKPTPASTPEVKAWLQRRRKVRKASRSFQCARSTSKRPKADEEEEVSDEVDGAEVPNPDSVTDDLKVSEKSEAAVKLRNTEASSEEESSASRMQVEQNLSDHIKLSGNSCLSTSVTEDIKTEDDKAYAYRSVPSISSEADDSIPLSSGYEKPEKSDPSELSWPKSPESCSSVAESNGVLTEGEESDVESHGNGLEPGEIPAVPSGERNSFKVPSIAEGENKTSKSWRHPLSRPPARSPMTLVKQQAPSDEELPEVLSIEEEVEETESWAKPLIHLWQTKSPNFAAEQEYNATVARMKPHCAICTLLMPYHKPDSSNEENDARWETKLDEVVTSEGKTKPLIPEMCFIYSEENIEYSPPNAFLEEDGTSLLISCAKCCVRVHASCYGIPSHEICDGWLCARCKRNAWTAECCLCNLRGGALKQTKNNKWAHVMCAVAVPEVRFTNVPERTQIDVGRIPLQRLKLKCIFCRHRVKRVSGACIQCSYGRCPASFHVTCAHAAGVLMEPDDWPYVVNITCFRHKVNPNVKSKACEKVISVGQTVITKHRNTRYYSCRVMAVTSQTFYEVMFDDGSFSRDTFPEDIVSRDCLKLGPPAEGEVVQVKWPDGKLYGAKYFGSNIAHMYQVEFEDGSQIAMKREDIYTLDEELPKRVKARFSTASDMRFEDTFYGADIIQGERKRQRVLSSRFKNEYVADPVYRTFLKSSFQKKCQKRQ

Sequence of Cytochrome P450 2D6 (P10635 whole entry): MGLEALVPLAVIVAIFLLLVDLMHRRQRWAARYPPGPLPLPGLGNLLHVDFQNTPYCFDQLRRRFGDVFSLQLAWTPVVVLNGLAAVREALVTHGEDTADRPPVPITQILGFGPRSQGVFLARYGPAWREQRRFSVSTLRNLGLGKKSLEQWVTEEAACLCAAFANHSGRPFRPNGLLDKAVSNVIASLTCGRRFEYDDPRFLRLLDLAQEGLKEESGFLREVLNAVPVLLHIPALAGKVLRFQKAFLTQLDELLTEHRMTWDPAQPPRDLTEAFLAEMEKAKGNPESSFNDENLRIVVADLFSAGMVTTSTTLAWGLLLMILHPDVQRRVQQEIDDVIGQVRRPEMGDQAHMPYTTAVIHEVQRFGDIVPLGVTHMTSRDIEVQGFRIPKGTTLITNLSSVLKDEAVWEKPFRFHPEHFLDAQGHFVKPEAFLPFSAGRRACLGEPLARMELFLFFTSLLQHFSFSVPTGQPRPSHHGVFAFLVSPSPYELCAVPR
Sequence of Lysine-specific demethylase 4A (O75164 whole entry): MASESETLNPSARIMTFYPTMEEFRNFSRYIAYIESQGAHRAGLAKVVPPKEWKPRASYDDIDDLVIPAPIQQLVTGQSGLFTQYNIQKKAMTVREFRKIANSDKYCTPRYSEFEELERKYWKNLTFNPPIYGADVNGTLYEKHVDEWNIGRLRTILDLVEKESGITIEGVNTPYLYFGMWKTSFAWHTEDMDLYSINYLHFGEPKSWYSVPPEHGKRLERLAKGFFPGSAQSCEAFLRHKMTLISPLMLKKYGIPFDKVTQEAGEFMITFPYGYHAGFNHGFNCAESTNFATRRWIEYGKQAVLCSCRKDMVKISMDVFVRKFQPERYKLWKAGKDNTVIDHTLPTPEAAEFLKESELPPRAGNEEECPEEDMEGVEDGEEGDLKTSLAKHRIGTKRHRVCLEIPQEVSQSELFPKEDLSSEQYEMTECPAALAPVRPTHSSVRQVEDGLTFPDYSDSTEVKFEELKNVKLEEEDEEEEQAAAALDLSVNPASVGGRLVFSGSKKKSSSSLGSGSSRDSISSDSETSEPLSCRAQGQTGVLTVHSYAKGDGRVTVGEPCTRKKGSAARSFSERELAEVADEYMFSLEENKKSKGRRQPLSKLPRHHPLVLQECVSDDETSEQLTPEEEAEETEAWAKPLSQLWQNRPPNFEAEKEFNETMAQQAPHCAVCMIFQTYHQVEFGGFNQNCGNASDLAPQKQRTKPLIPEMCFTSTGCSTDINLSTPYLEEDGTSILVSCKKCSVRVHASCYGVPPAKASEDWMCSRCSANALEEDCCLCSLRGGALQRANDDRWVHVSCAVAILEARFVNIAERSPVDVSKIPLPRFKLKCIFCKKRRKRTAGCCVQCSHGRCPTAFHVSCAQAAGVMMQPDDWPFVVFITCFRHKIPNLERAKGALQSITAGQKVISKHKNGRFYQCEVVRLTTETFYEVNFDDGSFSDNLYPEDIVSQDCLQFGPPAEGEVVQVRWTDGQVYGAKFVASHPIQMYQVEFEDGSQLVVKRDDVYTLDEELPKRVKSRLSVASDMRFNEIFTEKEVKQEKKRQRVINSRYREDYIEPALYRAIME

Q: With `N#Cc1cc(Oc2cccc3cccnc23)c(-n2nnc3ccccc32)cc1C#N` as the compound, how does the AC50 [1] read?
A: Its AC50 is 2.77 µM (active).

Q: And the EC50 [2]?
A: Its EC50 is 22.6 µM (active).

Q: And the CC50 [3]?
A: The CC50 was > 40 µM (active).

Q: What about the EC50 [4] of the same compound?
A: Its EC50 is 2.25 µM (active).

Q: What about the EC50 [5] of the same compound?
A: Its EC50 is > 59.6 µM (inactive).

Q: And the EC50 [6]?
A: The EC50 was > 59.6 µM (inactive).

Q: And the EC50 [7]?
A: The EC50 was > 260 µM (inactive).

Q: With `O=C(CNC(=O)c1cccs1)c1ccc(Br)cc1` as the compound, how does the AC50 [8] read?
A: The AC50 was 59.4 µM (active).

Q: Which AC50 [9] does the source give for `O=C1OC(=O)[C@@H]2[C@@H]1[C@@H]1CC[C@H]2O1` here?
A: The AC50 was “inconclusive”.

Q: Which AC50 [10] does the source give for `CC(C)Oc1ccc(Cc2c(O)nc(O)nc2O)cc1` here?
A: Its AC50 is 17.5 µM (active).

Q: And the AC50 [11]?
A: Its AC50 is 2.86 µM (active).

Q: Which EC50 [5] does the source give for `C=CCn1c(C)cc(C(=O)CN2NS(=O)(=O)c3ccccc3C2=O)c1C` here?
A: Its EC50 is > 59.6 µM (inactive).

Q: And the EC50 [6]?
A: Its EC50 is > 2.21 µM (active).
